From PubChem BioAssay (NCI)
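48-hour exposure; five concentrations; linearly interpolated endpoints. TGI is the concentration that stops growth completely.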

Columns and labels:
Test in all cases: NCI tumour cell line growth inhibition, 48 h
[1] = test system: HOP-92 NSCLC
[2] = test system: ACHN renal
[3] = test system: RXF 393 renal
[4] = test system: M14 melanoma
[5] = test system: RPMI-8226 leukemia
[6] = test system: SK-OV-3 ovarian
[7] = test system: HCT-116 colon
[8] = test system: SNB-75 CNS
[9] = test system: NCI-H460 lung
[10] = test system: K-562 leukemia
[11] = test system: TK-10 renal
[12] = test system: NCI/ADR-RES ovarian
[13] = test system: EKVX NSCLC
[14] = test system: HCC-2998 colon
[15] = test system: UO-31 renal
[16] = test system: SNB-19 CNS
[17] = test system: COLO 205 colon
[18] = test system: UACC-257 melanoma
[19] = test system: SN12C renal
[20] = test system: 786-0 renal
[21] = test system: KM12 colon
[22] = test system: SF-295 CNS
[23] = test system: PC-3 prostate
[24] = test system: NCI-H226 lung
[25] = test system: A498 renal
[26] = test system: A549 NSCLC
[27] = test system: CAKI-1 renal
[28] = test system: OVCAR-8 ovarian
[29] = test system: IGROV1 ovarian
[30] = test system: MDA-MB-435
[31] = test system: NCI-H23 lung
[32] = test system: BT-549 breast
[33] = test system: U251 CNS
[34] = test system: HT29 colon
[35] = test system: MDA-MB-231 breast
[36] = test system: MOLT-4 leukemia
[37] = test system: LOX IMVI melanoma
[38] = test system: OVCAR-5 ovarian
[39] = test system: HOP-62 NSCLC
[40] = test system: OVCAR-3 ovarian
[41] = test system: HCT-15 colon
[42] = test system: SW-620 colon
[43] = test system: DU-145 prostate
[44] = test system: SF-268 CNS
[45] = test system: SK-MEL-28 melanoma
[46] = test system: OVCAR-4 ovarian
[47] = test system: MDA-N
[48] = test system: MCF7 breast
[49] = test system: SF-539 CNS
[50] = test system: HS 578T breast
[51] = test system: MALME-3M melanoma
[52] = test system: NCI-H522 lung
[53] = test system: UACC-62 melanoma
[54] = test system: SK-MEL-5 melanoma
[55] = test system: SR leukemia
[56] = test system: HL-60(TB) leukemia
[57] = test system: CCRF-CEM leukemia
[58] = test system: SK-MEL-2 melanoma

For `O=C1C(=C/C=C2/SC(c3ccccc3)(c3ccccc3)c3ccccc32)C(=O)c2ccccc21`, the TGI [1] was over 100 µM, the TGI [2] was over 100 µM and the TGI [3] was over 100 µM. It also gave a TGI [4] of over 100 µM, a TGI [5] of over 100 µM and a TGI [6] of over 100 µM. For the same compound, the TGI [7] was over 100 µM, the TGI [8] was over 100 µM and the TGI [9] was over 100 µM. The TGI [10] was over 100 µM, the TGI [11] was over 100 µM and the TGI [12] was over 100 µM. The TGI [13] was over 100 µM, the TGI [14] was over 100 µM and the TGI [15] was over 100 µM. For the same compound, the TGI [16] was over 100 µM, the TGI [17] was over 100 µM and the TGI [18] was over 100 µM. The TGI [19] was over 100 µM, the TGI [20] was over 100 µM and the TGI [21] was over 100 µM. It also gave a TGI [22] of over 100 µM, a TGI [23] of over 100 µM and a TGI [24] of over 100 µM. For the same compound, the TGI [25] was over 100 µM, the TGI [26] was over 100 µM and the TGI [27] was over 100 µM. The TGI [28] was over 100 µM, the TGI [29] was over 100 µM and the TGI [30] was over 100 µM. For the same compound, the TGI [31] was over 100 µM, the TGI [32] was over 100 µM and the TGI [33] was over 100 µM. The TGI [34] was over 100 µM, the TGI [35] was over 100 µM and the TGI [36] was over 100 µM. The TGI [37] was over 100 µM, the TGI [38] was over 100 µM and the TGI [39] was over 100 µM. It also gave a TGI [40] of over 100 µM, a TGI [41] of over 100 µM and a TGI [42] of over 100 µM. For the same compound, the TGI [43] was over 100 µM, the TGI [44] was over 100 µM and the TGI [45] was over 100 µM. The TGI [46] was over 100 µM, the TGI [47] was over 100 µM and the TGI [48] was over 100 µM. For the same compound, the TGI [49] was over 100 µM, the TGI [50] was over 100 µM and the TGI [51] was over 100 µM. The TGI [52] was over 100 µM, the TGI [53] was over 100 µM and the TGI [54] was over 100 µM.
In the case of `CCC(=O)O[C@H]1CC[C@H]2[C@@H]3CCC4=CC(=O)C=C[C@]4(O)[C@H]3CC[C@]12C`, the TGI [1] is reported as 82.1 µM, the TGI [2] is reported as over 100 µM and the TGI [3] is reported as 52.4 µM. For the same compound, the TGI [4] was over 100 µM, the TGI [5] was over 100 µM and the TGI [6] was over 100 µM. For the same compound, the TGI [7] was over 100 µM, the TGI [9] was 44.5 µM and the TGI [10] was over 100 µM. The TGI [11] was over 100 µM, the TGI [12] was 91.9 µM and the TGI [13] was over 100 µM. For the same compound, the TGI [15] was over 100 µM, the TGI [16] was over 100 µM and the TGI [17] was over 100 µM. The TGI [18] was 26.8 µM, the TGI [19] was over 100 µM and the TGI [20] was over 100 µM. It also gave a TGI [21] of 85.1 µM, a TGI [22] of over 100 µM and a TGI [23] of 81.4 µM. The TGI [24] was over 100 µM, the TGI [25] was over 100 µM and the TGI [26] was over 100 µM. The TGI [55] was 80.5 µM, the TGI [27] was 88.4 µM and the TGI [28] was over 100 µM. It also gave a TGI [29] of over 100 µM, a TGI [30] of 10.2 µM and a TGI [31] of over 100 µM. It also gave a TGI [32] of 57.5 µM, a TGI [33] of 47.4 µM and a TGI [34] of 58.4 µM. The TGI [35] was 58.5 µM, the TGI [36] was over 100 µM and the TGI [37] was 69.5 µM. For the same compound, the TGI [56] was 37.6 µM, the TGI [38] was over 100 µM and the TGI [39] was over 100 µM. The TGI [40] was 68.4 µM, the TGI [41] was over 100 µM and the TGI [42] was over 100 µM. For the same compound, the TGI [43] was 64.5 µM, the TGI [44] was over 100 µM and the TGI [45] was over 100 µM. The TGI [46] was over 100 µM, the TGI [47] was over 100 µM and the TGI [57] was 17.2 µM. The TGI [48] was over 100 µM, the TGI [49] was over 100 µM and the TGI [50] was over 100 µM. For the same compound, the TGI [51] was over 100 µM, the TGI [52] was over 100 µM and the TGI [53] was over 100 µM. It also gave a TGI [58] of 45.8 µM and a TGI [54] of 19.9 µM.
`O=C(CN1CCN(c2ccccc2)CC1)c1ccc2[nH]c(=O)oc2c1` showed a TGI [2] of over 100 µM, a TGI [3] of over 100 µM and a TGI [4] of over 100 µM. For the same compound, the TGI [5] was over 100 µM, the TGI [6] was over 100 µM and the TGI [7] was over 100 µM. The TGI [8] was over 100 µM, the TGI [9] was over 100 µM and the TGI [10] was over 100 µM. The TGI [11] was over 100 µM, the TGI [12] was over 100 µM and the TGI [13] was over 100 µM. The TGI [17] was over 100 µM, the TGI [18] was over 100 µM and the TGI [19] was over 100 µM. For the same compound, the TGI [20] was over 100 µM, the TGI [21] was over 100 µM and the TGI [22] was over 100 µM. It also gave a TGI [23] of over 100 µM, a TGI [24] of over 100 µM and a TGI [25] of over 100 µM. The TGI [55] was over 100 µM, the TGI [27] was over 100 µM and the TGI [28] was over 100 µM. The TGI [29] was over 100 µM, the TGI [30] was over 100 µM and the TGI [31] was over 100 µM. For the same compound, the TGI [32] was over 100 µM, the TGI [33] was over 100 µM and the TGI [34] was over 100 µM. For the same compound, the TGI [35] was over 100 µM, the TGI [36] was over 100 µM and the TGI [37] was over 100 µM. It also gave a TGI [56] of over 100 µM, a TGI [38] of over 100 µM and a TGI [39] of over 100 µM. It also gave a TGI [40] of over 100 µM, a TGI [41] of over 100 µM and a TGI [42] of over 100 µM. For the same compound, the TGI [43] was over 100 µM, the TGI [44] was over 100 µM and the TGI [45] was over 100 µM. For the same compound, the TGI [47] was over 100 µM, the TGI [57] was over 100 µM and the TGI [48] was over 100 µM. The TGI [49] was over 100 µM, the TGI [50] was over 100 µM and the TGI [51] was over 100 µM. It also gave a TGI [53] of over 100 µM and a TGI [58] of over 100 µM.
